Counter-ions that a name gives are not always drawn.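 How tested: cells in 96-well plates exposed to compound for 48 hours at five concentrations. GI50: concentration for 50% inhibition of growth.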 Active and inactive are the calls of the source. Cut-off read from the data, not from the text of the source: active = GI50 up to about 1.1 µM and inactive = higher. A value given as a limit tells only on which side of the number the result lay.

Test systems include 786-0; A498; CCRF-CEM; DU-145; HCT-15; Hs-578T; IGROV-1; K562; KM12; MDA-MB-231; MDA-MB-435; NCI/ADR-RES; OVCAR-5; PC-3; RPMI-8226; SF-295; SK-MEL-2; SK-OV-3; U-251; UO-31.
Common to all, as to test: NCI-60 cell line screen, 48 h

Consider `COc1cc(NS(C)(=O)=O)ccc1Nc1c2ccccc2nc2c1[nH]c1ccc(NC3OC(CO)C(O)C(O)C3O)cc12` (stereo not given), for which the GI50 is 0.0246 µM (active) in the assay on 786-0; 0.129 µM (active) in the assay on A498; < 0.0132 µM (active) in the assay on CCRF-CEM; 0.0281 µM (active) in the assay on DU-145; 0.152 µM with HCT-15; 0.518 µM (active) with Hs-578T. Besides, the GI50 was 0.248 µM (active) in the assay on IGROV-1; 0.191 µM (active) in the assay on K562; 0.207 µM (active) with KM12; 0.546 µM (active) with MDA-MB-231; 0.798 µM (active) in the assay on MDA-MB-435; 2.39 µM (inactive) in the assay with NCI/ADR-RES. The GI50 in the assay with OVCAR-5 was 0.444 µM (active); in the assay with PC-3, 0.0908 µM (active); in the assay with RPMI-8226 it was 0.0973 µM (active); in the assay with SF-295, < 0.0139 µM (active); with SK-MEL-2, 0.269 µM (active); with SK-OV-3, 0.0173 µM (active). The GI50 was < 0.0201 µM (active) in the assay on U-251 and 0.128 µM (active) in the assay on UO-31.
Consider `Cc1ccc(C2SCc3nc4ccccc4n32)cc1` (stereo not given), for which the GI50 with 786-0 is 5.62 µM (inactive); in the assay on A498, 3.15 µM (inactive); with CCRF-CEM, 2.79 µM (inactive); with DU-145 it was 4.29 µM (inactive); in the assay with HCT-15, 1.85 µM; in the assay on Hs-578T, 2.61 µM (inactive). Further, the GI50 is 3.18 µM (inactive) with IGROV-1; 0.671 µM (active) with K562; 1.51 µM (inactive) in the assay on KM12; 10.6 µM (inactive) in the assay with MDA-MB-231; 0.451 µM (active) in the assay with MDA-MB-435; 2.37 µM (inactive) with NCI/ADR-RES. Also, the GI50 in the assay with OVCAR-5 is 6.46 µM (inactive); with PC-3, 1.88 µM (inactive); with RPMI-8226 it was 5.31 µM (inactive); in the assay with SF-295, 2.19 µM (inactive); in the assay on SK-MEL-2 it was 1.1 µM (active); in the assay with SK-OV-3, 7.8 µM (inactive). Besides, the GI50 is 5.87 µM (inactive) with U-251 and 5.36 µM (inactive) in the assay with UO-31.
Turning to `COC(=O)[C@@H]1C[C@@H](O)CN1C(=O)c1ccc([N+](=O)[O-])cc1[N+](=O)[O-]`, the GI50 with 786-0 was > 100 µM (inactive); in the assay on A498 it was > 100 µM (inactive); in the assay on CCRF-CEM, > 100 µM (inactive); in the assay on DU-145, > 100 µM (inactive); in the assay with HCT-15, > 100 µM; in the assay with Hs-578T it was > 100 µM (inactive). In addition, the GI50 in the assay on IGROV-1, with K562, in the assay on KM12, with MDA-MB-231, in the assay on MDA-MB-435 and with NCI/ADR-RES was > 100 µM (inactive) each time. In addition, the GI50 in the assay on OVCAR-5, in the assay with PC-3, in the assay on RPMI-8226, in the assay with SF-295, with SK-MEL-2 and with SK-OV-3 was > 100 µM (inactive) each time. Also, the GI50 in the assay with U-251 and in the assay on UO-31 was > 100 µM (inactive) in each case.
In the case of `CC[C@]12CN3CCc4c([nH]c5ccccc45)[C@@](C(=O)OC)(c4cc5c(cc4OC)N(C)[C@H]4[C@@](O)(C(=O)OC)[C@H](OC(C)=O)[C@]6(CC)C=CCN7CC[C@]54[C@@H]76)CC(C3)[C@H]1O2` (stereo not given in full) [VINLEUROSINE SULFATE], the GI50 with 786-0 is < 0.01 µM (active); with A498, 0.863 µM (active); in the assay on CCRF-CEM it was < 0.019 µM (active); in the assay with DU-145, < 0.01 µM (active); in the assay with HCT-15, 0.449 µM; with Hs-578T it was 0.108 µM (active). Besides, the GI50 was 0.441 µM (active) in the assay with IGROV-1; < 0.01 µM (active) with K562; < 0.0276 µM (active) in the assay with KM12; 0.291 µM (active) in the assay with MDA-MB-231; < 0.01 µM (active) in the assay with MDA-MB-435; 16.1 µM (inactive) in the assay with NCI/ADR-RES. Moreover, the GI50 was 0.804 µM (active) with OVCAR-5; 0.134 µM (active) in the assay on PC-3; 0.0581 µM (active) in the assay with RPMI-8226; 0.0401 µM (active) with SF-295; 0.0968 µM (active) with SK-MEL-2; 0.12 µM (active) in the assay on SK-OV-3. The GI50 with U-251 is < 0.0179 µM (active); in the assay on UO-31, 5.57 µM (inactive).

These data come from ChEMBL document CHEMBL1201862, “PubChem BioAssay data set” (2004).
